Laboratory results published in patent US9932326B2, “Potent and selective inhibitors of hepatitis C virus” (Cocrystal Pharma, LLC, priority 2010, dated 2018).

Columns and labels:
Format in all cases: cell-based
human PBM cells = experiment: Cellular toxicity assay, PBM cells
Protocol: (§1) The toxicity of the compounds was assessed in Vero, human PBM, CEM (human lymphoblastoid), MT-2, and HepG2 cells, as described previously (see Schinazi R. F., Sommadossi J.-P., Saalmann V., Cannon D. L., Xie M.-Y., Hart G. C., Smith G. A. & Hahn E. F. Antimicrob. Agents Chemother. 1990, 34, 1061-67). Cycloheximide was included as positive cytotoxic control, and untreated cells exposed to solvent were included as negative controls. The cytotoxicity IC50 was obtained from the concentration-response curve using the median effective method described previously (see Chou T.-C. & Talalay P. Adv. Enzyme Regul. 1984, 22, 27-55; Belen'kii M. S. & Schinazi R. F. Antiviral Res. 1994, 25, 1-11).

[1] = system: CEM (human lymphoblastoid) cells; experiment: Cellular toxicity assay, CEM cells
Protocol: as §1

Vero cells = experiment: Cellular toxicity assay, Vero cells
Protocol: as §1

| SMILES | Toxicities (μM) PBM (human PBM cells) [µM] | Toxicities (μM) CEM [1] [µM] | Toxicities (μM) VERO (Vero cells) [µM] |
| --- | --- | --- | --- |
| COC(=O)N[C@H](C(=O)N1C[C@@H](SC)C[C@H]1c1ncc(-c2ccc(-c3ccc(-c4cnc([C@@H]5C[C@H](SC)CN5C(=O)[C@@H](NC(=O)OC)C(C)C)[nH]4)cc3)cc2)[nH]1)C(C)C | 15.6 | 13.3 | 10.9 |
| COC(=O)N[C@H](C(=O)N1C[C@H](n2cc([Si](C)(C)C)nn2)C[C@H]1c1ncc(-c2ccc(-c3ccc(-c4cnc([C@@H]5C[C@@H](n6cc([Si](C)(C)C)nn6)CN5C(=O)[C@@H](NC(=O)OC)C(C)C)[nH]4)cc3)cc2)[nH]1)C(C)C | >100 | 25.2 | >100 |
| COC(=O)N[C@H](C(=O)N1C[C@@H](n2cc(C(=O)OC)nn2)C[C@H]1c1ncc(-c2ccc(-c3ccc(-c4cnc([C@@H]5C[C@H](n6cc(C(=O)OC)nn6)CN5C(=O)[C@@H](NC(=O)OC)C(C)C)[nH]4)cc3)cc2)[nH]1)C(C)C | 53 | 13.5 | ≥100 |
| COC(=O)N[C@H](C(=O)N1C[C@H](n2cc(-c3ccccc3)nn2)C[C@H]1c1ncc(-c2ccc(-c3ccc(-c4cnc([C@@H]5C[C@@H](n6cc(-c7ccccc7)nn6)CN5C(=O)[C@@H](NC(=O)OC)C(C)C)[nH]4)cc3)cc2)[nH]1)C(C)C | >100 | >100 | >100 |
| COC(=O)N[C@H](C(=O)N1C[C@H](n2ccnn2)C[C@H]1c1ncc(-c2ccc(-c3ccc(-c4cnc([C@@H]5C[C@@H](n6cc([Si](C)(C)C)nn6)CN5C(=O)[C@@H](NC(=O)OC)C(C)C)[nH]4)cc3)cc2)[nH]1)C(C)C | 3 | 16.2 | >100 |
| COC(=O)N[C@H](C(=O)N1C[C@@H](n2cc(COC(C)=O)nn2)C[C@H]1c1ncc(-c2ccc(-c3ccc(-c4cnc([C@@H]5C[C@H](n6cc(COC(C)=O)nn6)CN5C(=O)[C@@H](NC(=O)OC)C(C)C)[nH]4)cc3)cc2)[nH]1)C(C)C | 53 | 13.5 | ≥100 |
